Where no end group is shown, it is not given here. The star is where a group is joined. Octanoyl = CCCCCCCC(=O)*
How the values were obtained:
[1] = tested on: human microvascular endothelial cells (HMVECs); settings: Ref. 4; cited from earlier work
[2] = tested on: human umbilical vein endothelial cells (HUVECs); settings: Ref. 5; cited from earlier work
cardiomyocytes = settings: Ref. 8; cited from earlier work
CAC [3] = experiment: Detection of ROS in CAC (DCF-DA assay, FACS); assay type: cell-based, human; settings: for baseline level of ROS production: compared to untreated cells, FIG. 1B, 1E
Method: Peripheral-blood mononuclear cells (PB-MNC) isolated by Fycoll Histopaque 1077 (Sigma) were resuspended in 20% FBS 199 Medium and plated on fibronectin-coated dishes (Biocoat, Becton Dickinson Labware) as described by Hill et al. (Ref. 19). Human UAG studies were performed on CAC recovered from normal donors and diabetic patients. The purity of sorted cells was assessed by FACS analysis (Ref. 20). For experiments, the isolated CAC were cultured under 5% CO2 at 37° C. for 4 days on 20 μg/ml fibronectin-coated dishes in EGM-2 medium containing 10% FBS, hydrocortisone, human Fibroblast Growth Factor, Vascular Endothelial Growth Factor, Insulin Growth Factor 1, ascorbic acid, human Epidermal Growth Factor, gentamicin and amphotericin-B (Cambrex, Walkersville, Md., USA) alone or in combination with 1 μM UAG and 1.2 mg/ml AGE. In selected experiments, isolated CAC were cultured in EBM-2 medium (Cambrex, Walkersville, Md., USA) supplemented with 10 ng/ml of IL-3. FACS was used to analyze their phenotype (anti-CD45, anti-CD31, anti-CD105, anti-CD14 antibodies were used) (Ref. 22).
Detection of ROS—DCF-DA (0.5 μM final concentration) was added to CAC in the indicated culture conditions. At the indicated times, the cells were subjected to FACS analysis and processed as previously described (Ret. 22). H2O2 was used as positive control.

CAC [4] = experiment: CAC mobilization assay in healthy subjects and diabetic patients; assay type: in vivo, human; settings: diabetic patients compared to normal subjects, 6 hours treatment; FIG. 3B
Method: All the subjects underwent the following testing session: • UAG (3.0 μg/kg/h iv. as infusion for 12 h from 0 to 12 hours); • isotonic saline (infusion from 0 to 12 hours).
All tests were performed starting at 08.30-09.00 a.m. after overnight fasting, 30 minutes after an indwelling catheter had been placed into a forearm vein by slow infusion of isotonic saline. Blood samples were taken at 0 h, 6 h and 12 h.
Mobilization assay—CAC recovered from healthy subjects and diabetic patients, treated with UAG or saline for 6 h and 12 h, were evaluated. Total number of MNC was counted by 3 independent investigators. The percentage of CAC was calculated by comparing CAC obtained from diabetic patients and healthy donors, treated for 6 h and 12 h with UAG, AG or saline, to CAC recovered at time 0.

human arteries = settings: Ref. 35; cited from earlier work
HIT-T15 β-cells = experiment: Survival of cytokine-treated HIT-T15 β-cells (MTT); assay type: cell-based; settings: cytokines (IFN-γ/TNF-α/IL-1β), peptides 1 nM to 100 nM
Method: The survival effect of UAG (6-13) (SEQ ID NO: 6), UAG (8-13) (SEQ ID NO: 7), UAG (8-12) (SEQ ID NO: 8), UAG (8-11) (SEQ ID NO: 12), UAG (9-12) (SEQ ID NO: 9) and UAG (9-11) (SEQ ID NO: 10) was assessed in cytokine-treated HIT-T15 β-cells. […] The protective effects of peptides UAG (8-13) (SEQ ID NO: 7) and UAG (8-12) (SEQ ID NO: 8) were found similar to those of UAG (1-14) (SEQ ID NO: 2) and UAG (1-18) (SEQ ID NO: 3). A peptide made of the inverse sequence of UAG (1-14) (SEQ ID NO: 2) and named UAG (14-1) (SEQ ID NO: 11), was used as negative control for these experiments. […] These effects were however lower than those of UAG (6-13) (SEQ ID NO: 6).

CAC membranes = experiment: Competition binding with [125I-Tyr4]-UAG on CAC membranes; design: species or system human; settings: 100 nM unlabelled competitor, radioligand 0.25 nM; FIG. 5A
From the text: The specific binding of [^125I-Tyr^4]-UAG (calculated as difference between binding in the absence, control, and in the presence of UAG) represented about 75% of the control value (P<0.001) and was detected either on fresh (0.25 and 0.26 fmol) or frozen-thawed (0.20 and 0.33 fmol) CAC membranes from two different cell preparations.

GH secretion = settings: compared with Ghrelin-28; cited from earlier work
cloned cells = settings: cited from earlier work

Substance: AG: 28 amino acid peptide with an n-octanoyl modification on the Ser3 residue; endogenous ligand of GHSR (GSS(Octanoyl)FLSPEHQRVQQRKESKKPPAKLQPR; listed as Homo sapiens) [reference compound]
- cell proliferation, migration, in vitro angiogenesis and ERK2 phosphorylation [1]: significantly increased cell proliferation, migration, in vitro angiogenesis and ERK2 phosphorylation
- basal and TNF-α-induced chemotactic cytokine production and mononuclear cell adhesion [2]: inhibit basal and TNF-α-induced chemotactic cytokine production and mononuclear cell adhesion
- experimentally-induced cell death (cardiomyocytes): inhibit experimentally-induced cell death
- baseline level of ROS production (CAC [3]): A protective effect failed to be detected
- number of recovered CAC (CAC [4]): No statistical differences
- vasodilator action (human arteries): vasodilator actions

Substance: EHQRVQ [UAG (8-13)]
- survival effect on cytokine-induced cell death (HIT-T15 β-cells): significant protective effect at all the concentrations examined

Substance: GSSFLSPEHQRVQQ [UAG (1-14)]
- survival effect on cytokine-induced cell death (HIT-T15 β-cells): similar

Substance: GSSFLSPEHQRVQQRKES [UAG (1-18)]
- survival effect on cytokine-induced cell death (HIT-T15 β-cells): similar

Substance: Glu-His-Gln-Arg-Val (EHQRV; listed as Homo sapiens) [UAG (8-12)]
- survival effect on cytokine-induced cell death (HIT-T15 β-cells): significant, although reduced protection, only at 10 nM and 100 nM

Substance: Ser-Pro-Glu-His-Gln-Arg-Val-Gln (SPEHQRVQ; not fully specified (C-terminus); printed as Ser-Pro-Glu-His-Gln-Arg-Val-Gln; listed as Homo sapiens) [UAG (6-13)]
- survival effect on cytokine-induced cell death (HIT-T15 β-cells): potently inhibited cytokine-induced cell death
- inhibition of binding of [125I-Tyr4]-UAG to CAC membranes (CAC membranes): inhibited
- level of ROS production in AGE-cultured cells (CAC [3]; AGE-cultured CAC, FIG. 1C, 1F): reduced
- baseline level of ROS production (CAC [3]): also reduces the baseline level of ROS production

Substance: UAG (8-11): fragment of unacylated ghrelin, residues 8 to 11 of SEQ ID NO: 1 (EHQR; listed as Homo sapiens)
- survival effect on cytokine-induced cell death (HIT-T15 β-cells): significant survival effect only at 100 nM

Substance: UAG (9-11): fragment of unacylated ghrelin, residues 9 to 11 of SEQ ID NO: 1 (HQR)
- survival effect on cytokine-induced cell death (HIT-T15 β-cells): no significant effect at both concentrations tested

Substance: UAG (9-12): fragment of unacylated ghrelin, residues 9 to 12 of SEQ ID NO: 1 (HQRV; listed as Homo sapiens)
- survival effect on cytokine-induced cell death (HIT-T15 β-cells): significantly increased cell survival at both the concentrations tested

Substance: des Gln-14 Ghrelin: isoform of ghrelin-28, a 27 amino acid peptide possessing serine 3 modification by n-octanoic acid (GSS(Octanoyl)FLSPEHQRVQRKESKKPPAKLQPR; listed as Homo sapiens)
- GH secretion (GH secretion): induces GH secretion with similar potency as Ghrelin-28
- Ca2+ fluxes (cloned cells): elicits Ca^2+ fluxes in cloned cells

Reference: US8476408B2, “Unacylated ghrelin and analogs as therapeutic agents for vascular remodeling in diabetic patients and treatment of cardiovascular disease” (Alize Pharma SAS, priority 2008, dated 2013)
